Measured values as given in PubChem BioAssay AID1259407 (Chemical Carcinogenesis Research Information System (CCRIS), 2018).
Calls of active or inactive are those of the source. No rule for the calls is given here.

Tested on: CCRIS mutagenicity, Ames/micronucleus/aberration tests
Experiment: CCRIS mutagenicity studies
[1] = Test System: AMES SALMONELLA TYPHIMURIUM, Strain/Indicator: TA98, Metabolic Activation: RAT, LIVER, S-9, AROCLOR 1254, Method: STANDARD PLATE
[2] = Test System: AMES SALMONELLA TYPHIMURIUM, Strain/Indicator: TA100, Metabolic Activation: NONE, Method: PREINCUBATION
[3] = Test System: AMES SALMONELLA TYPHIMURIUM, Strain/Indicator: TA1535, Metabolic Activation: NONE, Method: STANDARD PLATE
[4] = Test System: AMES SALMONELLA TYPHIMURIUM, Strain/Indicator: TA1537, Metabolic Activation: NONE, Method: STANDARD PLATE
[5] = Test System: E. COLI, Strain/Indicator: WP2, Metabolic Activation: NONE, Method: STANDARD PLATE
[6] = Test System: E. COLI, Strain/Indicator: WP2 UVRA, Metabolic Activation: NONE, Method: STANDARD PLATE
[7] = Test System: E. COLI, Strain/Indicator: WP2 UVRA, Metabolic Activation: RAT, LIVER, S-9, AROCLOR 1254, Method: STANDARD PLATE

**Q.** Which mutagenic call (Test System: AMES SALMONELLA TYPHIMURIUM, Strain/Indicator: G46, Metabolic Activation: MOUSE, LIVER, S-9, PHENOBARBITAL, Method: STANDARD PLATE) does the source give for `O=C1[C@H]2CC=CC[C@H]2C(=O)N1SC(Cl)(Cl)Cl` here?
**A.** active; positive

**Q.** And the mutagenic call (Test System: AMES SALMONELLA TYPHIMURIUM, Strain/Indicator: TA97A, Metabolic Activation: NONE, Method: STANDARD PLATE)?
**A.** active; positive

**Q.** What about the mutagenic call (Test System: AMES SALMONELLA TYPHIMURIUM, Strain/Indicator: TA97A, Metabolic Activation: RAT, LIVER, S-9, AROCLOR 1254, Method: STANDARD PLATE) of the same compound?
**A.** inactive; negative

**Q.** What about the mutagenic call (Test System: AMES SALMONELLA TYPHIMURIUM, Strain/Indicator: TA98, Metabolic Activation: NONE) of the same compound?
**A.** active; positive

**Q.** What about the mutagenic call (Test System: AMES SALMONELLA TYPHIMURIUM, Strain/Indicator: TA98, Metabolic Activation: RAT, LIVER, S-9, AROCLOR 1254) of the same compound?
**A.** active; positive

**Q.** And the mutagenic call [1]?
**A.** active; positive

**Q.** And the mutagenic call (Test System: AMES SALMONELLA TYPHIMURIUM, Strain/Indicator: TA100, Metabolic Activation: NONE)?
**A.** active; positive

**Q.** What about the mutagenic call [2] of the same compound?
**A.** active; positive

**Q.** And the mutagenic call (Test System: AMES SALMONELLA TYPHIMURIUM, Strain/Indicator: TA100, Metabolic Activation: RAT, LIVER, S-9, AROCLOR 1254)?
**A.** active; positive

**Q.** What about the mutagenic call (Test System: AMES SALMONELLA TYPHIMURIUM, Strain/Indicator: TA100, Metabolic Activation: RAT, LIVER, S-9, Method: STANDARD PLATE) of the same compound?
**A.** active; positive

**Q.** And the mutagenic call (Test System: AMES SALMONELLA TYPHIMURIUM, Strain/Indicator: TA100, Metabolic Activation: S-9 MIX, Method: STANDARD PLATE)?
**A.** active; positive

**Q.** What about the mutagenic call (Test System: AMES SALMONELLA TYPHIMURIUM, Strain/Indicator: TA102, Metabolic Activation: NONE) of the same compound?
**A.** active; positive

**Q.** What about the mutagenic call (Test System: AMES SALMONELLA TYPHIMURIUM, Strain/Indicator: TA102, Metabolic Activation: RAT, LIVER, S-9, AROCLOR 1254) of the same compound?
**A.** active; positive

**Q.** And the mutagenic call (Test System: AMES SALMONELLA TYPHIMURIUM, Strain/Indicator: TA102, Metabolic Activation: RAT, LIVER, S-9, AROCLOR 1254, Method: STANDARD PLATE)?
**A.** inactive; negative

**Q.** What about the mutagenic call (Test System: AMES SALMONELLA TYPHIMURIUM, Strain/Indicator: TA102, Metabolic Activation: RAT, LIVER, S-9, PHENOBARBITAL, Method: STANDARD PLATE) of the same compound?
**A.** inactive; negative

**Q.** And the mutagenic call (Test System: AMES SALMONELLA TYPHIMURIUM, Strain/Indicator: TA104, Metabolic Activation: RAT, LIVER, S-9, AROCLOR 1254, Method: STANDARD PLATE)?
**A.** inactive; negative

**Q.** And the mutagenic call (Test System: AMES SALMONELLA TYPHIMURIUM, Strain/Indicator: TA104, Metabolic Activation: RAT, LIVER, S-9, PHENOBARBITAL, Method: STANDARD PLATE)?
**A.** active; positive

**Q.** What about the mutagenic call (Test System: AMES SALMONELLA TYPHIMURIUM, Strain/Indicator: TA1535, Metabolic Activation: MOUSE, LIVER, S-9, PHENOBARBITAL, Method: STANDARD PLATE) of the same compound?
**A.** active; positive

**Q.** And the mutagenic call (Test System: AMES SALMONELLA TYPHIMURIUM, Strain/Indicator: TA1535, Metabolic Activation: NONE)?
**A.** active; positive

**Q.** And the mutagenic call [3]?
**A.** active; positive

**Q.** What about the mutagenic call (Test System: AMES SALMONELLA TYPHIMURIUM, Strain/Indicator: TA1535, Metabolic Activation: RAT, LIVER, S-9, AROCLOR 1254) of the same compound?
**A.** active; positive

**Q.** What about the mutagenic call (Test System: AMES SALMONELLA TYPHIMURIUM, Strain/Indicator: TA1535, Metabolic Activation: RAT, LIVER, S-9, PHENOBARBITAL, Method: STANDARD PLATE) of the same compound?
**A.** active; positive

**Q.** What about the mutagenic call (Test System: AMES SALMONELLA TYPHIMURIUM, Strain/Indicator: TA1537, Metabolic Activation: NONE) of the same compound?
**A.** active; positive

**Q.** What about the mutagenic call [4] of the same compound?
**A.** active; positive

**Q.** And the mutagenic call (Test System: AMES SALMONELLA TYPHIMURIUM, Strain/Indicator: TA1537, Metabolic Activation: RAT, LIVER, S-9, AROCLOR 1254)?
**A.** active; positive

**Q.** And the mutagenic call (Test System: AMES SALMONELLA TYPHIMURIUM, Strain/Indicator: TA1537, Metabolic Activation: RAT, LIVER, S-9, PHENOBARBITAL, Method: STANDARD PLATE)?
**A.** active; positive

**Q.** And the mutagenic call (Test System: AMES SALMONELLA TYPHIMURIUM, Strain/Indicator: TA1950, Metabolic Activation: NONE, Method: SPOT)?
**A.** active; positive

**Q.** And the mutagenic call (Test System: Ames Salmonella typhimurium, Strain/Indicator: TA100, Metabolic Activation: None, Method: Preincubation)?
**A.** active; positive

**Q.** What about the mutagenic call (Test System: Ames Salmonella typhimurium, Strain/Indicator: TA1975P, Metabolic Activation: None, Method: Preincubation) of the same compound?
**A.** active; positive (at higher doses)

**Q.** What about the mutagenic call (Test System: CHINESE HAMSTER OVARY, Strain/Indicator: CHO-K1-BH4 (HGPRT), Metabolic Activation: RAT, LIVER, S-9, AROCLOR, Method: SUSPENSION/PLATE) of the same compound?
**A.** active; positive

**Q.** What about the mutagenic call (Test System: CHINESE HAMSTER V-79, Strain/Indicator: V-79/8-AZAGUANINE, Metabolic Activation: NONE, Method: STANDARD PLATE) of the same compound?
**A.** active; positive

**Q.** What about the mutagenic call (Test System: CHINESE HAMSTER V-79, Strain/Indicator: V-79/OUABAIN, Metabolic Activation: NONE, Method: STANDARD PLATE) of the same compound?
**A.** active; positive

**Q.** And the mutagenic call [5]?
**A.** active; positive

**Q.** What about the mutagenic call (Test System: E. COLI, Strain/Indicator: WP2, Metabolic Activation: RAT, LIVER, S-9, Method: STANDARD PLATE) of the same compound?
**A.** active; positive

**Q.** And the mutagenic call [6]?
**A.** active; positive

**Q.** And the mutagenic call [7]?
**A.** active; positive

**Q.** What does the source list for `CC(=O)OCC1=CO[C@@H](OC(=O)CC(C)C)[C@H]2C1=C[C@H](OC(=O)CC(C)C)[C@]21CO1`?
**A.** mutagenic call (Test System: AMES SALMONELLA TYPHIMURIUM, Strain/Indicator: TA98, Metabolic Activation: NONE, Method: STANDARD PLATE): inactive; negative; mutagenic call [1]: inactive; negative; mutagenic call (Test System: AMES SALMONELLA TYPHIMURIUM, Strain/Indicator: TA100, Metabolic Activation: NONE, Method: STANDARD PLATE): inactive; negative; mutagenic call (Test System: AMES SALMONELLA TYPHIMURIUM, Strain/Indicator: TA100, Metabolic Activation: RAT, LIVER, S-9, AROCLOR 1254, Method: STANDARD PLATE): active; positive; mutagenic call [3]: inactive; negative; mutagenic call (Test System: AMES SALMONELLA TYPHIMURIUM, Strain/Indicator: TA1535, Metabolic Activation: RAT, LIVER, S-9, AROCLOR 1254, Method: STANDARD PLATE): inactive; negative; mutagenic call [4]: inactive; negative; mutagenic call (Test System: AMES SALMONELLA TYPHIMURIUM, Strain/Indicator: TA1537, Metabolic Activation: RAT, LIVER, S-9, AROCLOR 1254, Method: STANDARD PLATE): inactive; negative; mutagenic call [5]: inactive; negative; mutagenic call (Test System: E. COLI, Strain/Indicator: WP2, Metabolic Activation: RAT, LIVER, S-9, AROCLOR 1254, Method: STANDARD PLATE): inactive; negative; mutagenic call [6]: active; positive; mutagenic call [7]: inactive; negative

**Q.** For `CC1CC(C)C(=O)C1=O` (stereo not drawn), which mutagenic call (Test System: AMES SALMONELLA TYPHIMURIUM, Strain/Indicator: TA98, Metabolic Activation: NONE, Method: PREINCUBATION) is on record?
**A.** inactive; negative

**Q.** What about the mutagenic call (Test System: AMES SALMONELLA TYPHIMURIUM, Strain/Indicator: TA98, Metabolic Activation: S-9, Method: PREINCUBATION) of the same compound?
**A.** inactive; negative

**Q.** And the mutagenic call [2]?
**A.** inactive; negative

**Q.** And the mutagenic call (Test System: AMES SALMONELLA TYPHIMURIUM, Strain/Indicator: TA100, Metabolic Activation: S-9, Method: PREINCUBATION)?
**A.** inactive; negative

**Q.** What about the mutagenic call (Test System: AMES SALMONELLA TYPHIMURIUM, Strain/Indicator: TA1535, Metabolic Activation: NONE, Method: PREINCUBATION) of the same compound?
**A.** inactive; negative

**Q.** And the mutagenic call (Test System: AMES SALMONELLA TYPHIMURIUM, Strain/Indicator: TA1535, Metabolic Activation: S-9, Method: PREINCUBATION)?
**A.** inactive; negative

**Q.** What about the mutagenic call (Test System: AMES SALMONELLA TYPHIMURIUM, Strain/Indicator: TA1537, Metabolic Activation: NONE, Method: PREINCUBATION) of the same compound?
**A.** inactive; negative

**Q.** And the mutagenic call (Test System: AMES SALMONELLA TYPHIMURIUM, Strain/Indicator: TA1537, Metabolic Activation: S-9, Method: PREINCUBATION)?
**A.** inactive; negative

**Q.** What about the mutagenic call (Test System: E.COLI, Strain/Indicator: WP2 UVRA, Metabolic Activation: NONE, Method: PREINCUBATION) of the same compound?
**A.** inactive; negative

**Q.** And the mutagenic call (Test System: E.COLI, Strain/Indicator: WP2 UVRA, Metabolic Activation: S-9, Method: PREINCUBATION)?
**A.** inactive; negative
